Source: US6689574B1, “Assays for nuclear receptor agonists and antagonists using fluorescence resonance energy transfer” (Merck & Co., Inc., priority 1997, dated 2004)

Tests used:
Format in all cases: biochemical
GST-hPPARγ1LBD = target: T1, GST-hPPARγ1LBD (Homo sapiens, UniProt P37231); experiment: FRET assay, biotin-hCBP1-453 with SA-XL665, GST-hPPARγ1LBD and Eu3+K-labeled anti-GST antibody (experiment 4); details: HEPES + 0.05% CHAPS, 1 μM AD5075, ratio 665 nm/620 nm
T1 construct: amino acids 176-478 of PPARγ1; made in house; host or cells: E. coli (DH5α)
Description: To further improve the signal to noise ratio, a series of experiments were conducted. Experiment 4 of Table 1 exemplifies 5 results obtained from those efforts. cDNA encoding a longer fragment of hCBP was cloned and expressed to get hCBP1-453. hCBP1-453 was biotinylated. Biotin-labeled hCBP1-453 (25 nM), SA-XL665 (100 nM), GST-hPPARγ1LBD (1 nM), and Eu3+K-labeled anti-GST antibody (2 nM) were mixed together in the presence or absence of 1 μM AD5075. […] A three- to four-fold signal-noise ratio was obtained.

PPARγ1LBD [1] = target: T2, PPARγ1LBD (Homo sapiens, UniProt P37231); experiment: FRET assay, GST-hCBP1-113 with Eu3+K-labeled anti-GST antibody, biotin-hPPARγ1LBD and SA-XL665 (experiment 3); parameters: amino acids 176-478 of PPARγ1; GST (N, cleaved yes); made in house; host or cells: E. coli (DH5α); details: HEPES + 0.05% NP40, 1 μM AD5075, ratio 665 nm/620 nm
Description: In order to get an even better signal-noise ratio, the above-described format was modified slightly for experiment 3. In experiment 3, SA-XL665 (500 nM), biotin-labeled hPPARγ1LBD (100 nM), GST-hCBP1-113, and Eu3+K labeled anti-GST antibody (2.5 μl) were incubated in the presence or absence of AD5075 (1 μM) in HEPES buffer containing 0.05% NP40. A two-fold signal- noise ratio was obtained.
The anti-GST antibody was a goat antibody to GST from Pharmacia (catalogue number 27-4577-01) that was labeled with Eu3+K according to the procedure summarized below. [drawing 2]

PPARγ1LBD [2] = target: T2, PPARγ1LBD; experiment: FRET assay, Eu3+K-labeled hCBP1-113 with biotin-hPPARγ1LBD and SA-XL665 (experiments 1 and 2); parameters: amino acids 176-478 of PPARγ1; GST (N, cleaved yes); made in house; host or cells: E. coli (DH5α); details: 1 μM AD5075, ratio 665 nm/620 nm
Excerpt: Experiments were first conducted using hCBP1-113 and hPPARγ1LBD. Purified hPPARγ1LBD was biotinylated with Sulfo-NHS-LC-Biotin (PIERCE) to a biotin:hPPARγ1LBD ratio of 3:1 according to the procedure provided by PIERCE. Purified hCBP1-113 was directly labeled with europium cryptate (Eu3+K) by the method illustrated in FIG. 1.
Thus, this experimental format made use of the fluorescent reagent pair europium cryptate (Eu3+K), which acted as donor, and XL665, which acted as acceptor. hCBP1-113 was directly labeled with europium cryptate (Eu3+K); hPPARγ12LBD was indirectly labeled with XL665 by means of a biotin-streptavidin link. The emission maximum of europium cryptate (Eu3+K) overlaps with the absorption maximum of XL665. Therefore, when europium cryptate (Eu3+K) and XL665 are in close proximity, and the sample is illuminated with light at 337 nm (the absorption maximum of europium cryptate (Eu3+K)), FRET can occur between europium cryptate (Eu3+K) and XL665. This FRET manifests itself as increased emission at 665 nm by XL665. […] When agonist is bound to hPPARγ1LBD, a specific interaction occurs between hPPARγ1LBD and hCBP1-113, thus bringing europium cryptate (Eu3+K) and XL665 into close enough proximity for FRET to occur. […]

PPARγ = target: T3, PPARγ (Homo sapiens, UniProt P37231); experiment: Titration of known PPARγ agonists in the CBP/PPARγ FRET assay (FIG. 5); details: derived from FIG. 5; agonist-induced CBP-PPARγ FRET
T3 construct: amino acids 176-478 of PPARγ1; GST (N); made in house; host or cells: E. coli (DH5α)
T3 sequence (P37231 204-505 limits assumed): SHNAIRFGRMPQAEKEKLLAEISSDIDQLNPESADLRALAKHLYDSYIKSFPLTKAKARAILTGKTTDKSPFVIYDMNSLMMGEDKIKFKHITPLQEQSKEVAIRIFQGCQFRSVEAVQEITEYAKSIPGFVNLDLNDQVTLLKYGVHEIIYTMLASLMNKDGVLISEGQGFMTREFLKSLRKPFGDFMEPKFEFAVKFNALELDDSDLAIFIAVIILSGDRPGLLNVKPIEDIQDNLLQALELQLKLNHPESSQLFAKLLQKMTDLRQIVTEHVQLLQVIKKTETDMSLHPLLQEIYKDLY
T3 sequence (Q92793 1-453 partner limits assumed): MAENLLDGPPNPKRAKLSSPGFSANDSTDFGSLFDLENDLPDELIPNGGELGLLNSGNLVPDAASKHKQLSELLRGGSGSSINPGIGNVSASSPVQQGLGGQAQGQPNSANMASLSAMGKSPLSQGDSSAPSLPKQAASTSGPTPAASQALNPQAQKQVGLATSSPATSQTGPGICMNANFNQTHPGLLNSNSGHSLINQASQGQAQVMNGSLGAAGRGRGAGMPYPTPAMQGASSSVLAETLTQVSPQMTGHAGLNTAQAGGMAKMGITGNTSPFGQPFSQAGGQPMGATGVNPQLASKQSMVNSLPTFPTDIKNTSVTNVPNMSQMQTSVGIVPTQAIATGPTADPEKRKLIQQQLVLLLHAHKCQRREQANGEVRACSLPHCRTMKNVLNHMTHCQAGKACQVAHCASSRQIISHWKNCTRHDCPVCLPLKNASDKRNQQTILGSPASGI

T2 sequence (P37231 204-505): as the sequence (P37231 204-505 limits assumed) above
T2 sequence (Q92793 1-113 partner): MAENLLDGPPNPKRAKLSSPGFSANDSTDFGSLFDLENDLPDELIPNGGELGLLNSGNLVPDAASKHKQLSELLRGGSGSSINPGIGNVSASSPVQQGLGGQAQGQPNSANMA
T1 sequence (P37231 204-505): as the sequence (P37231 204-505 limits assumed) above
T1 sequence (Q92793 1-453 partner): as the sequence (Q92793 1-453 partner limits assumed) above

Cc1oc(-c2ccccc2)nc1C(O)COc1ccc(CC2SC(=O)NC2=O)cc1 (centres unmarked) [AD5075]
Emission ratio with AD5075 (GST-hPPARγ1LBD): 1883
Emission ratio with AD5075 (PPARγ1LBD [1]): 1078
Emission ratio with AD5075 (PPARγ1LBD [2]; Experiment 1, PBS buffer): 1134
Emission ratio with AD5075 (PPARγ1LBD [2]; Experiment 2, HEPES + 0.05% NP40): 967
EC50 (PPARγ): 8 nM
